From article PMC12051620, “Molecular basis underlying the specificity of an antagonist AA92593 for mammalian melanopsins” (The Journal of Biological Chemistry, 2025)

What was measured:
Test in all cases: GsX GloSensor assay with Gsα/q11
Type in all cases: cell-based
[1] = molecular target: T1, human melanopsin F94^2.61C mutant (Homo sapiens, UniProt Q9UHM6, F127C); conditions: 16.7 μM AA92593, COS-1 cells, difference not statistically significant
T1 construct: the C-terminal amino acid residues (94, 140, 200, 214, 296, and 308 residues); expressed in transfected cells; host or cells: COS-1
Description: (§1) We substituted the residues Phe-94^2.61, Ser-188^ECL2, and Ser-269^6.52 in human melanopsin (Fig. 2, A and B) and examined the inhibitory effect of AA92593 on these mutants. Substitution of these amino acid residues with the corresponding amino acids in non-mammalian-type melanopsins (F94^2.61C, S188^ECL2T, and S269^6.52A) reduced the inhibitory effect of AA92593 compared to its effect on WT (Fig. 2, C–E). […] The antagonistic effect of AA92593 was reduced by ∼21% and ∼24% in the S188^ECL2T and S269^6.52A mutants, respectively (Fig. 2, D, E, and G). […] The volume change in side chain would affect arrangement of the amino acid residues around AA92593 (see below).
(§2) For GloSensor assay, opsins, GloSensor assay sensor (coded by pGlo-22F), and NanoBiT-tagged G proteins were transiently expressed in COS-1 cells (kindly provided from Dr David Farrens, Oregon Health and Science University) using PEI as described previously ([24], [52]). For the GsX GloSensor assay ([12], [13]), each well of a 96-well assay plate (Corning) was transfected with 50 ng opsin plasmid, 16.7 ng G protein plasmid, 50 ng pGlo-22F plasmid (Promega), and 500 ng PEI in 25 μl Opti-mem and 75 μl Dulbecco's modified Eagle's medium (D-MEM). […] For GFP-fluorescence microscopy, a 35-mm cell culture dish (IWAKI) was transfected with 2 μg melanopsin-GFP plasmid and 8 μg PEI in 400 μl Opti-mem and 1.2 ml D-MEM. […]
(§3) The transfected COS-1 cells were incubated at 37 °C, 5% CO2 for 2 days, and the medium was aspirated and exchanged with 50 μl of HBSS (145 mM NaCl, 10 mM D-glucose, 5 mM KCl, 1 mM MgCl2, 1.7 mM CaCl2, 1.5 mM NaHCO3, 10 mM Hepes, pH 7.4), containing 33.3, 20, 10, 2, 0.2, 0.02, 0.002, or 0 μM AA92593, 0.5% dimetyl sulfoxide (DMSO), and 4% (vol/vol) GloSensor cAMP reagent stock solution. […] Then, the cells were incubated at room temperature for 1 h, and luminescence changes were monitored. After incubation of the cells with AA92593, luminescence measurement was interrupted, the plate was ejected, and the cells were added with 50 μl of HBSS containing 0.2 μM 9-cis-retinal. […] Luminescence was measured using GM-2000 or GM-3510 microplate reader (Promega). Luminescence level of each well was measured every 30 s with integration time of 0.6 to 0.9 s. To illuminate opsins, luminescence measurement was interrupted, the plate was ejected, and the plate was illuminated by white light with CN-160 LED video light (light intensity, ∼9 mW/cm^2) (NEEWER). […] After illumination, luminescence measurement was resumed. The measured luminescence levels were normalized to the level at the starting point (time = 0 min). […]

[2] = molecular target: T2, human melanopsin S188^ECL2A mutant (Homo sapiens, UniProt Q9UHM6, S222A); conditions: 16.7 μM AA92593, COS-1 cells
T2 construct: expressed in transfected cells; host or cells: COS-1
Description: as §1, §2, §3

[3] = test system: human melanopsin S188^ECL2T mutant; conditions: 16.7 μM AA92593, COS-1 cells
Description: as §1, §2, §3

[4] = test system: human melanopsin S269^6.52A mutant; conditions: 16.7 μM AA92593, COS-1 cells
Description: as §1, §2, §3

T2 sequence (Q9UHM6 1-384 S222A limits assumed): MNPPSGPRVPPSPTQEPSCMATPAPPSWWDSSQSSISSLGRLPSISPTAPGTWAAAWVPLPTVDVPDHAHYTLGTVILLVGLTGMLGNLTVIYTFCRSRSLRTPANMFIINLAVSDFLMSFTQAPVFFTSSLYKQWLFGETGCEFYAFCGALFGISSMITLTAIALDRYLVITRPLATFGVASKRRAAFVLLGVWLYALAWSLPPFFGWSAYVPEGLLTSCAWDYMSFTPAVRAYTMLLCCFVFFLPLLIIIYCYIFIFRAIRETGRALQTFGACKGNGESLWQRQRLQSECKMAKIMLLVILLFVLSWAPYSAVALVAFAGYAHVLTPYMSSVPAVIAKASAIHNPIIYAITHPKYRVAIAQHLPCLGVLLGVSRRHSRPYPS
T1 sequence (Q9UHM6 1-384 F127C limits assumed): as the sequence (Q9UHM6 1-384 S222A limits assumed) above, with F127C, A222S counted along it

COc1ccc(S(=O)(=O)N2CCCCC2)cc1C [AA92593]
inhibitory effect of AA92593 compared to WT [1]: consistently weaker
change in the effect of AA92593 vs WT [2]: did not induce a significant change
reduction of the antagonistic effect of AA92593 vs WT [3]: ~21%
reduction of the antagonistic effect of AA92593 vs WT [4]: ~24%
